In ChEMBL document CHEMBL1201862, “PubChem BioAssay data set” (2004):
The source made the active and inactive calls.

How the values were obtained:
HeLa = test: HeLa cell cytotoxicity, dose response, cytotoxicity control, 24 h, cherry-picked samples (AID 504726); assay type: functional, cell-based; details: Homo sapiens;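 also: potency for cytotoxicity as loss of luminescence signal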
[1] = biological target: T1, Zinc finger protein mex-5 (Caenorhabditis elegans, UniProt Q9XUB2); test: MEX-5/TCR-2 RNA interaction inhibitors, dose response, biochemical, C. elegans, fluorescence polarization (AID 1960)
T1 sequence (Q9XUB2 whole entry): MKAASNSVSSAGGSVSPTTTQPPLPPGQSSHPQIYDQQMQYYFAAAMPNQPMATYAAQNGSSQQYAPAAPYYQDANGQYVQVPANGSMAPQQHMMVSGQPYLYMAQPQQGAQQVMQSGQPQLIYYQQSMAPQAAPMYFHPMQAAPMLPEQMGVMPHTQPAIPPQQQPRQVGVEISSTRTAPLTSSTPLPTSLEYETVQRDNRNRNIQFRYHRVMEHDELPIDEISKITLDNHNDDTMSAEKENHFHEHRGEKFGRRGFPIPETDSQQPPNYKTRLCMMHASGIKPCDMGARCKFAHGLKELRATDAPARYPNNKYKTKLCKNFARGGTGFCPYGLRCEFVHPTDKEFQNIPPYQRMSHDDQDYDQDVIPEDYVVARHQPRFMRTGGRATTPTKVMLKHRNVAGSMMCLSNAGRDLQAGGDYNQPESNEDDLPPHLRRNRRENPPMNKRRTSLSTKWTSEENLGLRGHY

[2] = biological target: Probable nicotinate-nucleotide adenylyltransferase (Staphylococcus aureus (strain N315), UniProt P65502); assay type: functional, Staphylococcus aureus subsp. aureus N315;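 also: confirmatory retest of primary uHTS inhibitor hits against NadD over a range of doses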
Probable nicotinate-nucleotide adenylyltransferase, sequence (P65502 whole entry): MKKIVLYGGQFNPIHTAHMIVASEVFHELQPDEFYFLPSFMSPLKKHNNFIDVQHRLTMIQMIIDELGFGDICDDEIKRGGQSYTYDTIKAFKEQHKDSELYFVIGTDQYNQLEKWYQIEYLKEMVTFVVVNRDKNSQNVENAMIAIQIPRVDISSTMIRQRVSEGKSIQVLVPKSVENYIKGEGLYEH

[3] = biological target: T2, Tyrosine-protein phosphatase non-receptor type 7 (Homo sapiens, UniProt P35236); assay type: functional
T2 sequence (P35236 whole entry): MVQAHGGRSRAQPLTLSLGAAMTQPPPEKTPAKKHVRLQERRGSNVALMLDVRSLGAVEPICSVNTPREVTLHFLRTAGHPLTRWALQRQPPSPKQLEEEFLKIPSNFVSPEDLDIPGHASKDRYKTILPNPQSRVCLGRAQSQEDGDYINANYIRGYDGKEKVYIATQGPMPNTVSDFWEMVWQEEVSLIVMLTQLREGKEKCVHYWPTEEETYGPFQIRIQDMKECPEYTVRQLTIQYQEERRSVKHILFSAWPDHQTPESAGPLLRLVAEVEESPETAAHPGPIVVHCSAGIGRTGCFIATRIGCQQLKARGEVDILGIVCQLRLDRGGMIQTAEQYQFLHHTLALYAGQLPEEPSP

[4] = biological target: T3, Small ubiquitin-related modifier 1 (Homo sapiens, UniProt P63165); test: inhibitors of SUMO1 partner interactions, dose response, biochemical, FRET (AID 624383); assay type: functional; details: read-out: IC50_Mean
T3 sequence (P63165 whole entry): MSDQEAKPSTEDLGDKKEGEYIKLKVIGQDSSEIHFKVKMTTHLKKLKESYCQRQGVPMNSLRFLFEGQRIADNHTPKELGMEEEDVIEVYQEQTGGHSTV

[5] = biological target: Eukaryotic translation initiation factor 4E (Mus musculus, UniProt P63073); test: eIF4E–eIF4G protein interaction inhibitors, dose response, biochemical, TR-FRET (AID 855); assay type: functional;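 also: potency for disrupting eIF4E binding to eIF4GI seen as loss of FRET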
Eukaryotic translation initiation factor 4E, sequence (P63073 whole entry): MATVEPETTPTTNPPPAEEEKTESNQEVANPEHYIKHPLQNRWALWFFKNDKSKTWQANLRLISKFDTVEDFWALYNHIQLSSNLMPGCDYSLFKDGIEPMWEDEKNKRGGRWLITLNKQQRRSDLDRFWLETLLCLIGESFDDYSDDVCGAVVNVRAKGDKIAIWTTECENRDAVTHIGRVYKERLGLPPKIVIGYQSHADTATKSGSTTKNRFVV

[6] = biological target: T3, Small ubiquitin-related modifier 1; test: inhibitors of SUMO1 peptide binding, dose response, biochemical, fluorescence polarization, uHTS hits (AID 624382); assay type: functional; details: read-out: IC50_Mean
[7] = biological target: T2, Tyrosine-protein phosphatase non-receptor type 7; test: HTS HePTP Fluorescent Assay using OMFP substrate for In Vitro dose response studies. [Related pubchem assays (depositor defined):AID1059, AID1077, AID1784, AID2068, AID2085, AID435032, AID521]; assay type: functional
[8] = biological target: T4, Tyrosine-protein phosphatase non-receptor type 22 (Homo sapiens, UniProt Q9Y2R2); assay type: functional;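 also: confirmatory dose-response retest of primary uHTS hits for inhibition of LYP phosphatase, measured by a fluorescence intensity read-out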
T4 sequence (Q9Y2R2 whole entry): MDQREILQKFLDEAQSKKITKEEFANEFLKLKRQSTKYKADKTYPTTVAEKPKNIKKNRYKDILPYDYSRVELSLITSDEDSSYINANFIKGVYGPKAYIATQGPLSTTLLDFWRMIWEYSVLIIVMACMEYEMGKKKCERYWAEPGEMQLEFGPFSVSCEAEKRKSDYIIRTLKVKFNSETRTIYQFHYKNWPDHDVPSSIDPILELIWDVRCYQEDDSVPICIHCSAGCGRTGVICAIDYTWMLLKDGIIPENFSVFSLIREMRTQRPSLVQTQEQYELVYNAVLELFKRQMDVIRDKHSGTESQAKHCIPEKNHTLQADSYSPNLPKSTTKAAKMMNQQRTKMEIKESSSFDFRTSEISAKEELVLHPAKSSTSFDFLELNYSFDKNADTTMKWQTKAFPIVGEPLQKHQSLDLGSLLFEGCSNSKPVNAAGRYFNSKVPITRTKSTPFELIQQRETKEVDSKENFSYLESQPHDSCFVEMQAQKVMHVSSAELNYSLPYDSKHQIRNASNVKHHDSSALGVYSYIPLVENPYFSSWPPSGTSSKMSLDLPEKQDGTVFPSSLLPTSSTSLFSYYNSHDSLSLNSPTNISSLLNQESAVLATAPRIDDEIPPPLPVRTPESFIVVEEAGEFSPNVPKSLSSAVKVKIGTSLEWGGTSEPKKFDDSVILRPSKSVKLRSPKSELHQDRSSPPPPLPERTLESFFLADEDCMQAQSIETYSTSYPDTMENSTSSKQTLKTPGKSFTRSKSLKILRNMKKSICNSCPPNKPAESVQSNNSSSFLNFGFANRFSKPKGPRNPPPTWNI

[9] = biological target: T5, Type-1 angiotensin II receptor (Homo sapiens, UniProt P30556); test: AT1 receptor antagonists, dose response, selectivity assay for APJ receptor antagonist project, cell-based, uHTS hits (AID 463214); assay type: functional;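 also: antagonist potency against angiotensin II stimulated AT1 response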
T5 sequence (P30556 whole entry): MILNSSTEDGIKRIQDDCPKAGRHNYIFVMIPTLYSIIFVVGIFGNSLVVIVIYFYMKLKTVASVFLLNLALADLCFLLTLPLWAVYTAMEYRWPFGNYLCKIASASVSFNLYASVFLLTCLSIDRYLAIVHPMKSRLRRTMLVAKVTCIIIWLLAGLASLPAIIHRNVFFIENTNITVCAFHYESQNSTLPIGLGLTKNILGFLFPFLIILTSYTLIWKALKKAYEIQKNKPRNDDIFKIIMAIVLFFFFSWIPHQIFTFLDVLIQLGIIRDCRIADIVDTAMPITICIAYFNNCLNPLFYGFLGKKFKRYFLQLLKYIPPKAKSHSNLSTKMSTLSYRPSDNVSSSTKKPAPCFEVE

Vero = Vero cell cytotoxicity, cytotoxicity control for flavivirus capping enzyme inhibitors (AID 588742); assay type: functional; details: Chlorocebus sabaeus
Beta-galactosidase [10] = biological target: T6, Beta-galactosidase (Escherichia coli, UniProt Q8VNN2); test: PubChem AID 485352; assay type: functional
T6 sequence (Q8VNN2 whole entry): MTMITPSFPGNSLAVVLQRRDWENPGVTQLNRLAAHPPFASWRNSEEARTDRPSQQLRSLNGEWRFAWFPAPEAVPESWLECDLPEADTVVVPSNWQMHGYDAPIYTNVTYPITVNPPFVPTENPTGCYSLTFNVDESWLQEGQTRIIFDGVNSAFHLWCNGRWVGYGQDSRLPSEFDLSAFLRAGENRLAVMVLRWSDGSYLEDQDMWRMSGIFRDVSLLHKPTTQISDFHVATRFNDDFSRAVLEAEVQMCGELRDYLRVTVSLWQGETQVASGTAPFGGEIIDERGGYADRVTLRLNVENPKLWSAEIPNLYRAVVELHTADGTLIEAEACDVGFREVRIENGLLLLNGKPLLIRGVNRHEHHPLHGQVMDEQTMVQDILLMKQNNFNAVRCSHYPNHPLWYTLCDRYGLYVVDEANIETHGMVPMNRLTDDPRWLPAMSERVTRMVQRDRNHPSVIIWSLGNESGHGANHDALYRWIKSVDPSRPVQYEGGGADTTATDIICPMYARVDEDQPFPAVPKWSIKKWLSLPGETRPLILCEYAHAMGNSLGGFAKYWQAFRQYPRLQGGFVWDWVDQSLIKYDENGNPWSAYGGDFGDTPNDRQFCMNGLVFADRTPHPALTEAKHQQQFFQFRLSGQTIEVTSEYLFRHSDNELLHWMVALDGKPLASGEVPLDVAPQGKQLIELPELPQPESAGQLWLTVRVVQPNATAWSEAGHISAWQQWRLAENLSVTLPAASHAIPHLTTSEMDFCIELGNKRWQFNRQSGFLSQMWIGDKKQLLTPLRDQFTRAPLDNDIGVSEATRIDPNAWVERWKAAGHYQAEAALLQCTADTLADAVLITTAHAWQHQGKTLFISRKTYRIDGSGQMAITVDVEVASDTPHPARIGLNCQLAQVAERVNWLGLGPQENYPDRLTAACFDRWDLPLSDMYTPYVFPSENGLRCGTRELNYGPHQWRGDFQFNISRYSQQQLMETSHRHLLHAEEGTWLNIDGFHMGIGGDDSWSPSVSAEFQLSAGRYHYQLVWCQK

[11] = cytotoxicity in HEK-293T NF-kB-Luc cells, dose response, cytotoxicity control for B/T-cell NF-kB inhibitor project, cell-based, uHTS hits (AID 489019); assay type: functional;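 also: IC50 reflects cytotoxicity as loss of cell viability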
[12] = cytotoxicity toward DRD oncogenic fibroblasts, dose response, cell-based, non-viral oncogenic, luminescence (AID 1934); assay type: functional; details: Homo sapiens
[13] = biological target: Glucose-6-phosphate 1-dehydrogenase (Homo sapiens, UniProt P11413); test: human G6PD enzyme inhibitors, dose response, selectivity assay for P. falciparum G6PD inhibitor project, biochemical, fluorescence (AID 504792); assay type: functional
Glucose-6-phosphate 1-dehydrogenase, sequence (P11413 whole entry): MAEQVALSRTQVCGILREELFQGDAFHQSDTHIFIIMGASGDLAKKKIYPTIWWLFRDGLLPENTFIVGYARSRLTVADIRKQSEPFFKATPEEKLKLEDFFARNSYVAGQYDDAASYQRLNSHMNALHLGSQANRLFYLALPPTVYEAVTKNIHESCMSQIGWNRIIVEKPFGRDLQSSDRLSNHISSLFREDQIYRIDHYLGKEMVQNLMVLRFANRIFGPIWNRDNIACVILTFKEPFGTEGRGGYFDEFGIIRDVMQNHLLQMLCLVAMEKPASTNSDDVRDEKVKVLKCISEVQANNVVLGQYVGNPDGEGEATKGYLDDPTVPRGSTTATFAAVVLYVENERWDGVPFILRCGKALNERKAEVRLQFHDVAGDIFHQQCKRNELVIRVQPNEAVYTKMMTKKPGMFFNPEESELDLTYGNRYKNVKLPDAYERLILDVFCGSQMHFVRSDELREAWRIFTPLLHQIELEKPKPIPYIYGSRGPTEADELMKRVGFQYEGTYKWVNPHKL

Beta-galactosidase [14] = biological target: T6, Beta-galactosidase; assay type: functional

CCN(CC)CCN1C(=O)c2cccc3cc(N)cc(c23)C1=O
AC50 (HeLa): 109 µM (active) | EC50 [1]: 5.13 µM (inconclusive)

O=C(O)c1cccc(-n2cccc2/C=C2/NC(=O)N(c3ccc(Cl)cc3)C2=O)c1
IC50 [2]: 11.1 µM (active) | IC50 [3]: 4.89 µM (active) | IC50 [4]: 17.4 µM (active) | IC50 [5]: 4.43 µM (active) | IC50 [6]: 21.3 µM (inactive) | IC50 [7]: 6.06 µM (active) | IC50 [8]: 4.4 µM (active)

C=C1C(=O)O[C@@H]2C[C@@H](C)[C@@H]3C=CC(=O)[C@@]3(C)[C@@H](OC(=O)CC(=O)O[C@H]3[C@@H]4C(=C)C(=O)O[C@@H]4C[C@@H](C)[C@@H]4C=CC(=O)[C@]43C)[C@H]12
IC50 [9]: 6.05 µM (active) | CC50 (Vero): 1.64 µM (active) | EC50 (Beta-galactosidase [10]): > 40 µM (inactive) | IC50 [11]: > 80 µM (inactive) | EC50 [12]: 332 nM (inconclusive) | IC50 [13]: > 80 µM (inactive) | EC50 (Beta-galactosidase [14]): > 31.5 µM (inactive)
